# Assay results taken from ChEMBL document CHEMBL1154899, “Synthesis and biological evaluation of caffeic acid 3,4-dihydroxyphenethyl ester” (J Nat Prod, 2010).
# Experiments:
# Type in all cases: functional
# EKVX = assay: Antiproliferative activity against human EKVX cells assessed as cell growth at 50 uM by SRB assay; conditions: read-out: Activity
# SF-268 = assay: Antiproliferative activity against human SF268 cells assessed as cell growth at 50 uM by SRB assay; conditions: read-out: Activity
# SNB-75 [1] = assay: Antiproliferative activity against human SNB75 cells assessed as cell growth at 5 uM by SRB assay; conditions: read-out: Activity
# Malme-3M = assay: Antiproliferative activity against human MALME-3M cells assessed as cell growth at 5 uM by SRB assay; conditions: read-out: Activity
# SK-MEL-28 = assay: Antiproliferative activity against human SK-MEL-28 cells assessed as cell growth at 5 uM by SRB assay; conditions: read-out: Activity
# OVCAR-3 = assay: Antiproliferative activity against human OVCAR-3 cells assessed as cell growth at 5 uM by SRB assay; conditions: read-out: Activity
# OVCAR-4 = assay: Antiproliferative activity against human OVCAR4 cells assessed as cell growth at 5 uM by SRB assay; conditions: read-out: Activity
# SK-OV-3 [2] = assay: Antiproliferative activity against human SKOV3 cells assessed as cell growth at 5 uM by SRB assay; conditions: read-out: Activity
# A498 = assay: Antiproliferative activity against human A498 cells assessed as cell growth at 5 uM by SRB assay; conditions: read-out: Activity
# MCF7 = assay: Antiproliferative activity against human MCF7 cells assessed as cell growth at 50 uM by SRB assay; conditions: read-out: Activity
# 786-0 [3] = assay: Antiproliferative activity against human 786-0 cells assessed as cell growth at 500 uM by SRB assay; conditions: read-out: Activity
# SN12C = assay: Antiproliferative activity against human SN12C cells assessed as cell growth at 500 uM by SRB assay; conditions: read-out: Activity
# UO-31 = assay: Antiproliferative activity against human UO31 cells assessed as cell growth at 500 uM by SRB assay; conditions: read-out: Activity
# CCRF-CEM [4] = assay: Antiproliferative activity against human CCRF-CEM cells assessed as cell growth at […] by SRB assay; conditions: read-out: Activity
# K562 = assay: Antiproliferative activity against human K562 cells assessed as cell growth at […] by SRB assay; conditions: read-out: Activity
# [5] = Antiproliferative activity against human […] cells assessed as cell growth at 50 uM by SRB assay; conditions: read-out: Activity
# MDA-MB-435 = assay: Antiproliferative activity against human MDA-MB-435 cells assessed as cell growth at 5 mM by SRB assay; conditions: read-out: Activity
# HCC 2998 = assay: Antiproliferative activity against human HCC2998 cells assessed as cell growth at […] by SRB assay; conditions: read-out: Activity
# HOP-62 [6] = assay: Antiproliferative activity against human HOP62 cells assessed as cell growth at 500 uM by SRB assay; conditions: read-out: Activity
# NCI-H23 = assay: Antiproliferative activity against human NCI-H23 cells assessed as cell growth at 500 uM by SRB assay; conditions: read-out: Activity
# COLO 205 [7] = assay: Antiproliferative activity against human COLO205 cells assessed as cell growth at 500 uM by SRB assay; conditions: read-out: Activity
# SW-620 = assay: Antiproliferative activity against human SW620 cells assessed as cell growth at 500 uM by SRB assay; conditions: read-out: Activity
# SNB-75 [8] = assay: Antiproliferative activity against human SNB75 cells assessed as cell growth at 500 uM by SRB assay; conditions: read-out: Activity
# SK-MEL-5 = assay: Antiproliferative activity against human SK-MEL-5 cells assessed as cell growth at 500 uM by SRB assay; conditions: read-out: Activity
# HOP-62 [9] = assay: Antiproliferative activity against human HOP62 cells by SRB assay
# HCT-15 = assay: Antiproliferative activity against human HCT15 cells by SRB assay
# UACC-62 = assay: Antiproliferative activity against human UACC62 cells by SRB assay
# 786-0 [10] = assay: Antiproliferative activity against human 786-0 cells by SRB assay
# ACHN = assay: Antiproliferative activity against human ACHN cells by SRB assay
# BT-549 = assay: Antiproliferative activity against human BT549 cells by SRB assay
# T47D [11] = assay: Antiproliferative activity against human T47D cells by SRB assay
# CCRF-CEM [12] = assay: Antiproliferative activity against human CCRF-CEM cells assessed as cell growth at 0.5 uM by SRB assay; conditions: read-out: Activity
# IGROV-1 = assay: Antiproliferative activity against human IGROV1 cells assessed as cell growth at 0.5 uM by SRB assay; conditions: read-out: Activity
# SK-OV-3 [13] = assay: Antiproliferative activity against human SKOV3 cells assessed as cell growth at 0.5 uM by SRB assay; conditions: read-out: Activity
# MOLT-4 = assay: Antiproliferative activity against human MOLT4 cells assessed as cell growth at 0.5 uM by SRB assay; conditions: read-out: Activity
# NCI-H322M = assay: Antiproliferative activity against human NCI-H322M cells assessed as cell growth at 0.5 uM by SRB assay; conditions: read-out: Activity
# NCI-H522 = assay: Antiproliferative activity against human NCI-H522 cells assessed as cell growth at 0.5 uM by SRB assay; conditions: read-out: Activity
# SNB-75 [14] = assay: Antiproliferative activity against human SNB75 cells assessed as cell growth at 0.5 uM by SRB assay; conditions: read-out: Activity
# [15] = Antiproliferative activity against human Hs 578T cells assessed as cell growth at 0.5 uM by SRB assay; conditions: read-out: Activity
# T47D [16] = assay: Antiproliferative activity against human T47D cells assessed as cell growth at 0.5 uM by SRB assay; conditions: read-out: Activity
# CCRF-CEM [17] = assay: Antiproliferative activity against human CCRF-CEM cells assessed as cell growth at 5 uM by SRB assay; conditions: read-out: Activity
# [18] = Antiproliferative activity against human […] cells assessed as cell growth at 5 uM by SRB assay; conditions: read-out: Activity
# COLO 205 [19] = assay: Antiproliferative activity against human COLO205 cells assessed as cell growth at 5 uM by SRB assay; conditions: read-out: Activity
# [20] = read-out: LC50 (the source's name)
# [21] = read-out: pLC50 (the source's name) (converted)
compound,measurement,setting,value
O=C(/C=C/c1ccc(O)c(O)c1)OCCc1ccc(O)c(O)c1,growth at 50 µM,EKVX,88%
same,growth at 50 µM,SF-268,85%
same,growth at 5 µM,SNB-75 [1],75%
same,growth at 5 µM,Malme-3M,98%
same,growth at 5 µM,SK-MEL-28,89%
same,growth at 5 µM,OVCAR-3,99%
same,growth at 5 µM,OVCAR-4,95%
same,growth at 5 µM,SK-OV-3 [2],96%
same,growth at 5 µM,A498,81%
same,growth at 50 µM,MCF7,92%
same,growth at 500 µM,786-0 [3],81%
same,growth at 500 µM,SN12C,65%
same,growth at 500 µM,UO-31,23%
same,growth,CCRF-CEM [4],-44%
same,growth,K562,-8%
same,growth at 50 µM,[5],54%
same,growth at 5000 µM,MDA-MB-435,17%
same,growth,HCC 2998,18%
same,growth at 500 µM,HOP-62 [6],95%
same,growth at 500 µM,NCI-H23,78%
same,growth at 500 µM,COLO 205 [7],84%
same,growth at 500 µM,SW-620,64%
same,growth at 500 µM,SNB-75 [8],58%
same,growth at 500 µM,SK-MEL-5,64%
same,GI50,HOP-62 [9]; read-out: GI50,29.1 µM
same,CC50,HOP-62 [9]; [20],> 50 µM
same,TGI,HOP-62 [9]; read-out: TGI,> 50 µM
same,GI50,HOP-62 [9]; read-out: pGI50 (converted),28.8 µM
same,CC50,HOP-62 [9]; [21],> 50.1 µM
same,TGI,HOP-62 [9]; read-out: pTGI,> 50.1 µM
same,GI50,HCT-15; read-out: GI50,2.25 µM
same,CC50,HCT-15; [20],> 50 µM
same,TGI,HCT-15; read-out: TGI,> 50 µM
same,GI50,HCT-15; read-out: pGI50 (converted),1.41 µM
same,CC50,HCT-15; [21],> 50.1 µM
same,TGI,HCT-15; read-out: pTGI,> 50.1 µM
same,GI50,UACC-62; read-out: GI50,5.33 µM
same,CC50,UACC-62; [20],> 50 µM
same,TGI,UACC-62; read-out: TGI,38.3 µM
same,GI50,UACC-62; read-out: pGI50 (converted),5.37 µM
same,CC50,UACC-62; [21],> 50.1 µM
same,TGI,UACC-62; read-out: pTGI (converted),38 µM
same,GI50,786-0 [10]; read-out: GI50,13.5 µM
same,CC50,786-0 [10]; [20],> 50 µM
same,TGI,786-0 [10]; read-out: TGI,> 50 µM
same,GI50,786-0 [10]; read-out: pGI50 (converted),13.5 µM
same,CC50,786-0 [10]; [21],> 50.1 µM
same,TGI,786-0 [10]; read-out: pTGI,> 50.1 µM
same,GI50,ACHN; read-out: GI50,2.94 µM
same,CC50,ACHN; [20],> 50 µM
same,TGI,ACHN; read-out: TGI,38.7 µM
same,GI50,ACHN; read-out: pGI50 (converted),2.95 µM
same,CC50,ACHN; [21],> 50.1 µM
same,TGI,ACHN; read-out: pTGI (converted),38.9 µM
same,GI50,BT-549; read-out: GI50,8.67 µM
same,CC50,BT-549; [20],> 50 µM
same,TGI,BT-549; read-out: TGI,> 50 µM
same,GI50,BT-549; read-out: pGI50 (converted),8.32 µM
same,CC50,BT-549; [21],> 50.1 µM
same,TGI,BT-549; read-out: pTGI,> 50.1 µM
same,GI50,T47D [11]; read-out: GI50,11.3 µM
same,CC50,T47D [11]; [20],> 50 µM
same,TGI,T47D [11]; read-out: TGI,> 50 µM
same,GI50,T47D [11]; read-out: pGI50 (converted),11.2 µM
same,CC50,T47D [11]; [21],> 50.1 µM
same,TGI,T47D [11]; read-out: pTGI,> 50.1 µM
same,growth at 0.5 µM,CCRF-CEM [12],95%
same,growth at 0.5 µM,IGROV-1,112%
same,growth at 0.5 µM,SK-OV-3 [13],99%
same,growth at 0.5 µM,MOLT-4,101%
same,growth at 0.5 µM,NCI-H322M,90%
same,growth at 0.5 µM,NCI-H522,74%
same,growth at 0.5 µM,SNB-75 [14],81%
same,growth at 0.5 µM,[15],83%
same,growth at 0.5 µM,T47D [16],98%
same,growth at 5 µM,CCRF-CEM [17],99%
same,growth at 5 µM,[18],70%
same,growth at 5 µM,COLO 205 [19],94%
